The text below walks through data of paper PMC9902548, “In silico and in vitro anti-inflammatory study of phenolic compounds isolated from Eucalyptus maculata resin” (Scientific Reports, 2023).

The IC50 is the point on the concentration scale where inhibition reaches its midpoint.

In one experiment the test system is NO. Nature of the experiment: NO inhibition, ELISA kit. The class given is biochemical. Conditions: mean ± SD, average of three determinations. On the procedure: (§1) The 50% inhibitory concentration (IC50) values were calculated from the concentration-inhibition response curve.
(§2) Cyclooxygenases (COX-1 and COX-2) were measured by an enzyme immunoassay (EIA) kit (Cayman Chemical, Ann Arbor, MI, USA) according to the manufacturer’s instructions. TNF-R2, NF-KB, and NO were measured by ELISA kit (#79756, BPS Bioscience, USA), (#CSB-EL015761HU, Cusabio, China).

In the next experiment the test system is NF-KB. Description: NF-KB inhibition, ELISA kit. Type of experiment: biochemical. Conditions: for NF- KB IC50 ± SD: mean ± SD, average of three determinations. On the procedure:
as §1, §2

The target of a further experiment is T1, TNF-R2 (Homo sapiens, UniProt P20333).
T1 construct: purchased BPS Bioscience 79756
T1 sequence (P20333 23-257 limits assumed): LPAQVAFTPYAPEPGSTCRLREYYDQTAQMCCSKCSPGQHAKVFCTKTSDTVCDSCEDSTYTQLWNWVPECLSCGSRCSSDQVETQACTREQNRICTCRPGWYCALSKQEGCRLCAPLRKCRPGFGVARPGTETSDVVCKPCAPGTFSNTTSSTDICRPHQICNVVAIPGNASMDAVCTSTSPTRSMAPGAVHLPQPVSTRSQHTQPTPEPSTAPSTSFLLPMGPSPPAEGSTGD
Nature of the experiment: TNF-R2 binding activity, ELISA kit. Conditions: mean ± SD, average of three determinations. (In general: In an ELISA, binding on a coated surface is turned into a signal by an enzyme label.)

The target of experiment [1] is T2, COX-2 (Homo sapiens, UniProt P35354).
T2 sequence (P35354 18-604): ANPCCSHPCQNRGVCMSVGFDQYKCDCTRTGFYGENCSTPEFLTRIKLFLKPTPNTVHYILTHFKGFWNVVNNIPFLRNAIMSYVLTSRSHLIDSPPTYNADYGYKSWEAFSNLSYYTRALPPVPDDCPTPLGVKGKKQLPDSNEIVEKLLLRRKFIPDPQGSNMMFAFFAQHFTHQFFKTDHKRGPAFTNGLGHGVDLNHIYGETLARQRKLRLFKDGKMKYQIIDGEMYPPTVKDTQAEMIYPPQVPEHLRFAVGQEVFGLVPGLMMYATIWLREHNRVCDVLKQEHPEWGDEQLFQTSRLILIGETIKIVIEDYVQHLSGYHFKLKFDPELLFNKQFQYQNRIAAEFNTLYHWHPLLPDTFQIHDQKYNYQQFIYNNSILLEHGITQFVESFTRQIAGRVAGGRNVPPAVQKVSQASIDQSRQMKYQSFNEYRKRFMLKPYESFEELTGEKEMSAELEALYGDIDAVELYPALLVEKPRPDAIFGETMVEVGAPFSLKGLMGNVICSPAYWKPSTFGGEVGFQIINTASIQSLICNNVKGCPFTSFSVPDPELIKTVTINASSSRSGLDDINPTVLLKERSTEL
Description: COX-2 inhibition, enzyme immunoassay (EIA) kit.
Description: All enzyme inhibition activities were performed in triplicate and were examined using the sample t-test using the SPSS 26.0 program at (p < 0.05) (Table 1).

For a further experiment, the target named is COX-1 (Ovis aries, UniProt P05979). Also noted: method as in ref 15 (Zhang et al.). As to conditions: ref 15 (Zhang et al.); cited from earlier work.
COX-1, sequence (P05979 25-600): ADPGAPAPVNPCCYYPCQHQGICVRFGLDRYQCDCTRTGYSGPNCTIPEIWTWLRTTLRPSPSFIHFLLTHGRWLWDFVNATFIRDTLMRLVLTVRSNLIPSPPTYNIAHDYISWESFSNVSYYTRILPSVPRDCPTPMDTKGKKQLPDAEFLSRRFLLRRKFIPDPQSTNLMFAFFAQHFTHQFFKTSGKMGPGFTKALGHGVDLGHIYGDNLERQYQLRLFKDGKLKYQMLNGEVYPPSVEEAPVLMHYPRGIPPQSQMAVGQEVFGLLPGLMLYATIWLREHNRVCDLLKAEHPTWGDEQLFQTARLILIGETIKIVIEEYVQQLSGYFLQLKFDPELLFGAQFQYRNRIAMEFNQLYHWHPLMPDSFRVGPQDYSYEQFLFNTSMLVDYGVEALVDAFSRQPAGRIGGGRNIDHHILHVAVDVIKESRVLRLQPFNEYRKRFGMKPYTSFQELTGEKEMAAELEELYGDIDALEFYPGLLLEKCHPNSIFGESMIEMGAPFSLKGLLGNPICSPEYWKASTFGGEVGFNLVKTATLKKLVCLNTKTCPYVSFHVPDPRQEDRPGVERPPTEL
Experiment [2] concerns the target T2, COX-2. Also noted: purchased Cayman Chemical; method as in ref 15 (Zhang et.al 2006). Conditions: ref 15 (Zhang et.al 2006); cited from earlier work.

Take `O=[N+]([O-])c1cccc2cn[nH]c12` [7-nitroindazole, 7-nitroindazole, reference compound]: the “NO IC50 ± SD” value in the experiment on NO turned out to be 49.20 ± 0.80 µg/mL.

Turning to `O=C(O)/C=C/c1ccccc1` [Compound C2, (E)-cinnamic acid], in the experiment with NF-KB, the “Suppression of NF-KB (in words)” value was “significantly moderate suppression”. Moreover, the “NF- KB IC50 ± SD” value in the experiment with NF-KB came out at 0.00877 ± 7e-05 ng/mL. The IC50 is 0.0515 µM at TNF-R2 and 34.6 µM against COX-2 [1]. In addition, the “NO IC50 ± SD” value in the experiment on NO was determined as 66.00 ± 0.69 µg/mL.

As for `COc1cc(O)c2c(c1)O[C@H](c1ccc(O)cc1)[C@@H](O)C2=O` [Compound C4, 7-O-methyl aromadendrin], in the experiment with NF-KB, the “Suppression of NF-KB (in words)” value was “significantly moderate suppression” and the “NF- KB IC50 ± SD” value is 0.00933 ± 3e-05 ng/mL. In addition, at TNF-R2, the IC50 is 0.0276 µM. Also, the “Inhibitory effects on COX-1 (in words)” value on COX-1 was “moderate inhibitory effects”. In addition, in the experiment on NO, the “NO IC50 ± SD” value is recorded as 76.40 ± 1.74 µg/mL. Moreover, on COX-2 [2], the “Inhibitory activity against COX-2 (in words)” value is “no inhibitory activity”. Also, at COX-2 [1], the “COX-2 inhibitory activity (in words)” value is listed as “moderate inhibitory activity” and the IC50 was 8.44 µM.

`COc1cc(O)c2c(c1)O[C@H](c1ccc(O)cc1)CC2=O` [Compound C1, (2S)-5,4'-dihydroxy-7-methoxyflavanone]: in the experiment on NF-KB, the “Suppression of NF-KB (in words)” value is “significantly moderate suppression” and the “NF- KB IC50 ± SD” value amounted to 0.01007 ± 9e-05 ng/mL. The IC50 at TNF-R2 is 0.031 µM. Moreover, the “Inhibitory effects on COX-1 (in words)” value at COX-1 is recorded as “moderate inhibitory effects”. Also, the “NO IC50 ± SD” value in the experiment on NO was 82.00 ± 1.06 µg/mL. Moreover, the “Inhibitory activity against COX-2 (in words)” value at COX-2 [2] was “no inhibitory activity”. Further, at COX-2 [1], the “COX-2 inhibitory activity (in words)” value is “moderate inhibitory activity” and the IC50 was 11.3 µM.

As to `O=C(C=Cc1ccccc1)OCC1OC(OC(=O)C=Cc2ccccc2)C(O)C(O)C1O` [Compound C5, 1,6-dicinnamoyl-O-α-D-glucopyranoside], the “NF- KB IC50 ± SD” value in the experiment with NF-KB worked out at 0.00607 ± 7e-05 ng/mL. The 50% inhibitory concentration (IC50) was 0.0117 µM at TNF-R2 and 2.63 µM against COX-2 [1]. Besides, the “NO IC50 ± SD” value with NO is listed as 38.00 ± 0.04 µg/mL.

As for `COc1cc(/C=C/C(=O)CC(=O)/C=C/c2ccc(O)c(OC)c2)ccc1O` [Curcumin, reference compound], the “NF- KB IC50 ± SD” value with NF-KB was 0.0078 ± 3e-05 ng/mL.
